Experimental data taken from patent US20060040957A1, “BICYCLIC PYRIMIDINE MATRIX METALLOPROTEINASE INHIBITORS” (priority 2001, published 2006).
Structures can show the parent of a compound that is named as a salt. Where two headings read alike, the source gives them in different places.

Columns and labels:
Assay type in all cases: biochemical
[1] = target: MMP-13CD (catalytic domain of collagenase 3) (Homo sapiens, UniProt P45452); assay: Thiopeptolide substrate hydrolysis assay, MMP-13CD
Source text: (§1) Thiopeptolide substrates show virtually no decomposition or hydrolysis at or below neutral pH in the absence of a matrix metalloproteinase enzyme.

[2] = target: T1, MMP-2FL (full length Gelatinase A) (Homo sapiens, UniProt P08253); assay: Thiopeptolide substrate hydrolysis assay, MMP-2FL; details: HEPES pH 7.0, 22° C., read-out: IC50 (μM) Versus Certain MMPs: MMP-02 FL
T1 sequence (P08253 110-660): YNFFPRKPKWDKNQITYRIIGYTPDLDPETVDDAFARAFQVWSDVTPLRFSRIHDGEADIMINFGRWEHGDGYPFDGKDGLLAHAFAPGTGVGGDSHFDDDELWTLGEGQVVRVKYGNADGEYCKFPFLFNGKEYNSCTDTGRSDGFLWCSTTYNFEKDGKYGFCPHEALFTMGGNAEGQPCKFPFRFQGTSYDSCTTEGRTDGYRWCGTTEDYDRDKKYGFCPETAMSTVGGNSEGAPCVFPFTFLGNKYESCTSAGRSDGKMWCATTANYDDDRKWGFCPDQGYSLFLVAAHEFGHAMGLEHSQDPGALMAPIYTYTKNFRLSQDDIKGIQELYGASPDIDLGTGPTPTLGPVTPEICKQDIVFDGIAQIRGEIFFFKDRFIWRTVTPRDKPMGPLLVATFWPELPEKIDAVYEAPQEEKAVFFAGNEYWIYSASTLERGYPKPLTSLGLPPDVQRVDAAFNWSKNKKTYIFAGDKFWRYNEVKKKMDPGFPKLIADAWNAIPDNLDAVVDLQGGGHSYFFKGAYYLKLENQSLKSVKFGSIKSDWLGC
Source text: (§2) The invention compounds of Formula I have been evaluated in standard assays for their ability to inhibit the catalytic activity of various MMP enzymes.
as §1
(§3) Several representative compounds have been evaluated for their ability to inhibit various matrix metalloproteinase enzymes.

[3] = target: MMP-9FL (full length Gelatinase B) (Homo sapiens, UniProt P14780); assay: Thiopeptolide substrate hydrolysis assay, MMP-9FL; details: HEPES pH 7.0, 22° C., read-out: IC50 (μM) Versus Certain MMPs: MMP-09 FL
Source text: as §2, §1, §3

[4] = target: MMP-14CD (catalytic domain of MMP-14) (Homo sapiens, UniProt P50281); assay: Thiopeptolide substrate hydrolysis assay, MMP-14CD; details: HEPES pH 7.0, 22° C., read-out: IC50 (μM) Versus Certain MMPs: MMP-14 CD
Source text: as §2, §1, §3

[5] = target: T2, MMP-7FL (full length matrilysin) (Homo sapiens, UniProt P09237); assay: Thiopeptolide substrate hydrolysis assay, MMP-7FL; details: HEPES pH 7.0, 22° C., read-out: IC50 (μM) Versus Certain MMPs: MMP-07 FL
T2 sequence (P09237 95-267): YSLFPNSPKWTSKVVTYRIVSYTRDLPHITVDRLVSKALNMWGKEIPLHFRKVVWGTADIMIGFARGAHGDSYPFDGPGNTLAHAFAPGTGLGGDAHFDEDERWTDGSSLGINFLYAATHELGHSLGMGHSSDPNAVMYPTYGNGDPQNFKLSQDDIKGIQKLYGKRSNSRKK
Source text: as §2, §1, §3

[6] = thiopeptolide substrate, HEPES pH 7.0, 22° C., read-out: IC50 (μM) Versus Certain MMPs: MMP-13 CD
[7] = IC50 (μM) Versus Certain MMPs: MMP-13 CD, thiopeptolide substrate, HEPES pH 7.0, 22° C.

Chain of MMP-9FL (full length Gelatinase B) (P14780 94-707, species assumed): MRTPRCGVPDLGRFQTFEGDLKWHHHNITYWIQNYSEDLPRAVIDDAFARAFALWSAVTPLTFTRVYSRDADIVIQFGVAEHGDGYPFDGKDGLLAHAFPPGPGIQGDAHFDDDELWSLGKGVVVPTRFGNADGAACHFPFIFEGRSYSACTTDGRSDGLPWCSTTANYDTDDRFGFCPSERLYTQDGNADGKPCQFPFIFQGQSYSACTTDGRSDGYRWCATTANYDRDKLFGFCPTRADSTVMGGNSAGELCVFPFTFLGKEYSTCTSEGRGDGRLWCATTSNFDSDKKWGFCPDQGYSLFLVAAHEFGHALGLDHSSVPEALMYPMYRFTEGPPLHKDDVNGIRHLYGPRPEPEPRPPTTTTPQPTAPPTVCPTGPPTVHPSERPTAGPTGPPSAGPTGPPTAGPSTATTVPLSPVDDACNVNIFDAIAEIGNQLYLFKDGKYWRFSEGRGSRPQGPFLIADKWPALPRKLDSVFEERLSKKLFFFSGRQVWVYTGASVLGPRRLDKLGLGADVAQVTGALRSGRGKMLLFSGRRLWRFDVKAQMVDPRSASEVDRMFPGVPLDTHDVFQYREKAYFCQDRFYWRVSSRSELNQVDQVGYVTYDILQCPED

| SMILES | IC50 [1, 6] [µM] | other results |
| --- | --- | --- |
| COC(=O)c1cn2c(=O)n(Cc3ccccc3)c(=O)c(C)c2s1 [Example 33a, 6-Benzyl-8-methyl-5,7-dioxo-6,7-dihydro-5H-thiazolo[3,2-c]pyrimidine-2-carboxylic acid methyl ester] | – | IC50 (μM) Versus Certain MMPs: MMP-13 CD ([1]; thiopeptolide substrate, HEPES pH 7.0, 22° C.): none |
| Cc1c(=O)n(Cc2ccccc2)c(=O)n2cc(C(=O)NCc3cscn3)sc12 [Example 35, 6-Benzyl-8-methyl-5,7-dioxo-6,7-dihydro-5H-thiazolo[3,2-c]pyrimidine-2-carboxylic acid(thiazol-4-ylmethyl)-amide hydrochloride] | > 100 | – |
| Cc1c(=O)n(Cc2ccccc2)c(=O)n2cc(C(=O)NCc3cn4ccsc4n3)sc12 [Example 38, 6-Benzyl-8-methyl-5,7-dioxo-6,7-dihydro-5H-thiazolo[3,2-c]pyrimidine-2-carboxylic acid(imidazo[2,1-b]thiazol-6-ylmethyl)-amide] | – | IC50 [1, 7]: 25 µM |
| Cc1c(=O)n(Cc2ccccc2)c(=O)n2cc(C(=O)NCc3cnn(C)c3)sc12 [Example 39, 6-Benzyl-8-methyl-5,7-dioxo-6,7-dihydro-5H-thiazolo[3,2-c]pyrimidine-2-carboxylic acid(1-methyl-1H-pyrazol-4-ylmethyl)-amide] | – | IC50 [1, 7]: 2.3 µM |
| C#CCNC(=O)c1cn2c(=O)n(Cc3ccccc3)c(=O)c(C)c2s1 [Example 40, 6-Benzyl-8-methyl-5,7-dioxo-6,7-dihydro-5H-thiazolo[3,2-c]pyrimidine-2-carboxylic acid prop-2-ynylamide] | > 100 | – |
| Cc1cccc(CNC(=O)c2cn3c(=O)n(Cc4ccccc4)c(=O)c(C)c3s2)n1 [Example 41, 6-Benzyl-8-methyl-5,7-dioxo-6,7-dihydro-5H-thiazolo[3,2-c]pyrimidine-2-carboxylic acid(6-methyl-pyridin-2-ylmethyl)-amide] | – | IC50 [1, 7]: 6.2 µM |
| Cc1c(=O)n(Cc2ccccc2)c(=O)n2cc(C(=O)NCC3CCNCC3)sc12 [Example 45, 6-Benzyl-8-methyl-5,7-dioxo-6,7-dihydro-5H-thiazolo[3,2-c]pyrimidine-2-carboxylic acid(piperidin-4-ylmethyl)-amide hydrochloride] | > 100 | – |
| Cc1c(=O)n(Cc2ccccc2)c(=O)n2cc(C(=O)NCc3ccccn3)sc12 [Example 47, 6-Benzyl-8-methyl-5,7-dioxo-6,7-dihydro-5H-thiazolo[3,2-c]pyrimidine-2-carboxylic acid(pyridin-2-ylmethyl)-amide hydrochloride] | – | IC50 [1, 7]: 9.9 µM |
| Cc1nc(CNC(=O)c2cn3c(=O)n(Cc4ccccc4)c(=O)c(C)c3s2)cs1 [Example 52, 6-Benzyl-8-methyl-5,7-dioxo-6,7-dihydro-5H-thiazolo[3,2-c]pyrimidine-2-carboxylic acid(2-methyl-thiazol-4-ylmethyl)-amide hydrochloride] | > 100 | – |
| Cc1c(=O)n(Cc2ccc(C(=O)O)cc2)c(=O)n2cc(C(=O)NCc3ccc(F)cc3)sc12 [Example 58, 4-[2-(4-Fluoro-benzylcarbamoyl)-8-methyl-5,7-dioxo-7H-thiazolo[3,2-c]pyrimidin-6-ylmethyl]-benzoic acid] | 0.00222 | IC50 [2]: > 100 µM; IC50 [3]: > 100 µM; IC50 [4]: > 100 µM; IC50 [5]: > 100 µM |
| Cc1c(=O)n(Cc2nn[nH]n2)c(=O)n2cc(C(=O)NCc3ccc(F)cc3)sc12 [Example 66, 8-Methyl-5,7-dioxo-6-(2H-tetrazol-5-ylmethyl)-6,7-dihydro-5H-thiazolo[3,2-c]pyrimidine-2-carboxylic acid 4-fluoro-benzylamide] | 14 | – |
| Cc1c(=O)n(CCS(=O)(=O)c2ccc(Cl)cc2)c(=O)n2cc(C(=O)NCc3ccncc3)sc12 [Example 83, 6-[2-(4-Chloro-benzenesulfonyl)-ethyl]-8-methyl-5,7-dioxo-6,7-dihydro-5H-thiazolo[3,2-c]pyrimidine-2-carboxylic acid(pyridin-4-ylmethyl)-amide hydrochloride] | 2.6 | – |
| Cc1c(=O)n(Cc2ccc(C#N)cc2)c(=O)n2cc(C(=O)NCc3ccncc3)sc12 [Example 85, 6-(4-Cyano-benzyl)-8-methyl-5,7-dioxo-6,7-dihydro-5H-thiazolo[3,2-c]pyrimidine-2-carboxylic acid(pyridin-4-ylmethyl)-amide hydrochloride] | 0.0547 | IC50 [2]: > 30 µM; IC50 [3]: > 30 µM; IC50 [4]: > 30 µM; IC50 [5]: > 30 µM |
| Cc1c(=O)n(CCC(=O)c2ccccc2)c(=O)n2cc(C(=O)NCc3ccc(F)cc3)sc12 [Example 86, 8-Methyl-5,7-dioxo-6-(3-oxo-3-phenyl-propyl)-6,7-dihydro-5H-thiazolo[3,2-c]pyrimidine-2-carboxylic acid 4-fluoro-benzylamide] | 0.35 | – |
| Cc1c(=O)n(C(C)c2ccccc2)c(=O)n2cc(C(=O)NCc3ccc(F)cc3)sc12 (centres unmarked) [Example 87, 8-Methyl-5,7-dioxo-6-(1-phenyl-ethyl)-6,7-dihydro-5H-thiazolo[3,2-c]pyrimidine-2-carboxylic acid 4-fluoro-benzylamide] | 2.1 | – |
| Cc1c(=O)n(CCCCCC#N)c(=O)n2cc(C(=O)NCc3ccc(F)cc3)sc12 [Example 89, 6-(5-Cyano-pentyl)-8-methyl-5,7-dioxo-6,7-dihydro-5H-thiazolo[3,2-c]pyrimidine-2-carboxylic acid 4-fluoro-benzylamide] | 1.08 | – |
| C=C(C)Cn1c(=O)c(C)c2sc(C(=O)NCc3ccc(F)cc3)cn2c1=O [Example 93, 8-Methyl-6-(2-methyl-allyl)-5,7-dioxo-6,7-dihydro-5H-thiazolo[3,2-c]pyrimidine-2-carboxylic acid 4-fluoro-benzylamide] | – | IC50 [1, 7]: 1.55 µM |
| CCC(CC)n1c(=O)c(C)c2sc(C(=O)NCc3ccc(F)cc3)cn2c1=O [Example 94, 6-(1-Ethyl-propyl)-8-methyl-5,7-dioxo-6,7-dihydro-5H-thiazolo[3,2-c]pyrimidine-2-carboxylic acid 4-fluoro-benzylamide] | > 30 | – |
| Cc1c(=O)n(CCS(=O)(=O)c2ccccc2)c(=O)n2cc(C(=O)NCc3ccc(F)cc3)sc12 [Example 96, 6-(2-Benzenesulfonyl-ethyl)-8-methyl-5,7-dioxo-6,7-dihydro-5H-thiazolo[3,2-c]pyrimidine-2-carboxylic acid 4-fluoro-benzylamide] | 1.2 | – |
| Cc1c(=O)n(CCNC(=O)c2ccccc2)c(=O)n2cc(C(=O)NCc3ccc(F)cc3)sc12 [Example 100, 6-(2-Benzoylamino-ethyl)-8-methyl-5,7-dioxo-6,7-dihydro-5H-thiazolo[3,2-c]pyrimidine-2-carboxylic acid 4-fluoro-benzylamide] | 10 | – |
| Cc1c(=O)n(Cc2ccc(S(=O)(=O)N3CCOCC3)cc2)c(=O)n2ccsc12 [Example 108, 8-Methyl-6-[4-(morpholine-4-sulfonyl)-benzyl]-thiazolo[3,2-c]pyrimidine-5,7-dione] | > 100 | – |
| Cc1c(=O)n(Cc2ccccc2)c(=O)n2cc(C(=O)NCC3CCCO3)sc12 (centres unmarked) [Example 110, 6-Benzyl-8-methyl-5,7-dioxo-6,7-dihydro-5H-thiazolo[3,2-c]pyrimidine-2-carboxylic acid(tetrahydro-furan-2-ylmethyl)-amide] | 54 | – |
| COC(=O)Nc1cc(Cn2c(=O)c(C)c3sc(C(=O)NCc4ccc(F)cc4)cn3c2=O)on1 [Example 111, {5-[2-(4-Fluoro-benzylcarbamoyl)-8-methyl-5,7-dioxo-7H-thiazolo[3,2-c]pyrimidine-6-ylmethyl]-isoxazol-3-yl}-carbamic acid methyl ester] | – | IC50 ([1]; running text after Table 1, read-out: IC50 inhibition of MMP-13CD): 0.17 µM |
| COc1cc(CNC(=O)c2cn3c(=O)n(Cc4ccc(F)c(F)c4)c(=O)c(C)c3s2)ccn1 [Example 114, 6-(3,4-Fluoro-benzyl)-8-methyl-5,7-dioxo-6,7-dihydro-5H-thiazolo[3,2-c]pyrimidine-2-carboxylic acid(2-methoxy-pyridin-4-ylmethyl)-amide hydrochloride] | – | IC50 ([1]; IC50 inhibition of MMP-13CD, running text after Table 1): 0.0155 µM |
